Reference: paper PMC6433232, “Targeting mitochondria in cancer therapy could provide a basis for the selective anti-cancer activity” (PLoS ONE, 2019)
Read-outs that look alike come from different tables or passages of the source.

Assays:
[1] = target: T1, human GSR enzyme (recombinant GSR) (Homo sapiens, UniProt P00390); assay: Glutathione reductase (GSR) activity assay; type: biochemical; settings: for remaining activity at 30 µM: 2 h at 25°C, read-out: GSR, enzyme residual activity as compared to DMSO-treated sample; for inhibition at 30 µM: read-out: GSR-inhibiting activity
T1 construct: made in house; host or cells: E. coli BL21(DE3)
T1 sequence (P00390 44-522): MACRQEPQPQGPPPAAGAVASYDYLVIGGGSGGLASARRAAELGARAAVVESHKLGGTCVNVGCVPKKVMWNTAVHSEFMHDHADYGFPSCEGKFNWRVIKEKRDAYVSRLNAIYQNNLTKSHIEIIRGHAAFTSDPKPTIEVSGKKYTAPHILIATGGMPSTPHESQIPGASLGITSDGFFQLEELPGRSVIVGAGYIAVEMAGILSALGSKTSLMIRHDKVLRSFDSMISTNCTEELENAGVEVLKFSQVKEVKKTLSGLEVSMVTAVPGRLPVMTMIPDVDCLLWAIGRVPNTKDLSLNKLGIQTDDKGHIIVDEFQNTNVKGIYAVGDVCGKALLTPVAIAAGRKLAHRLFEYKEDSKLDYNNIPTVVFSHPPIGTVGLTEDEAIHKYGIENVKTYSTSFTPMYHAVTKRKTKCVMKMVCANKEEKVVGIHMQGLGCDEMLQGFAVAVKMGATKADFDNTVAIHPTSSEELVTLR
Description: Recombinant GSR (0.5 u/well) in a 96-well plate was incubated in the GSR assay buffer (50 mM potassium phosphate buffer, pH 7.5 supplemented with 1 mM EDTA), 100 μl with and without compound (30 μM) for 2 h at 25°C. At the end of incubation, 100 μl of solution containing NADPH (0.087 mM), oxidized glutathione (GSSG) (0.95 mM) and 1 μl of the reagent that detects ratio of GSSG to reduced glutathione (GSH) (Abcam) were added and the mixture was incubated for an additional 1 h at 25°C. GSR activity was measured by using 490-nm excitation and monitoring fluorescence at 520 nm with a fluorescence plate reader. One unit of GSR activity was defined as the amount of enzyme required to produce 1 μM of GSH in a total reaction volume of 200 μl in 1 minute in the GSR assay buffer containing NADPH (0.087 mM), GSSG (0.95 mM) and 1 μl of GSH/GSSG ratio detection reagent (Abcam).
Next, we evaluated the inhibitory activity of the selected compounds against human GSR enzyme using recombinant GSR and Abcam GSH/GSSG ratio detection reagent (Table 1). Briefly, GSR activity was measured by following oxidized glutathione (GSSG) reduction in the presence of NADPH and expressed as percentage of residual activity with respect to DMSO-treated enzyme. The residual activity of GSR for both the non-toxic and toxic compounds was quite heterogeneous, ranging from 100% (compounds 38) to 3% (compound 32). […] We thus conclude that GSR inhibitory activity alone cannot be used to predict the selective cytotoxicity index.

[2] = tested on: breast carcinoma HCC1187 cells; assay: cells; type: cell-based; settings: for CC50: Homo sapiens; for Selective cytotoxicity index HCC 1187 ATO: human
Excerpt: For further analyses, we used compounds that have the selective cytotoxicity index either above 20 (non-toxic compounds) or below 1 (toxic compounds) with the aim to identify targets that are responsible for the selective activity of the identified compounds toward cancer cells. To confirm that the effects of the selected compounds are not only specific to MIA PaCa-2 cells, we evaluated their cytotoxic activities on breast carcinoma HCC1187 cells (Table 1). […] For easy comparison, the data with MIA PaCa-2 cells were also included in Table 1. […] We also noticed that, again with a few exceptions, HCC1187 cells are more resistant to the non-toxic compounds in the presence of ATO as compared to MIA PaCa-2 cells. In contrast, HCC1187 cells are more sensitive to all toxic compounds in the presence of ATO as compared to MIA PaCa-2 cells. The high sensitivity of HCC1187 cells to toxic compounds contributed to the increased selective cytotoxicity index.

[3] = tested on: human primary hepatocytes; settings: for EC50: read-out: EC50, μM Hepatocytes ATO, in the presence of ATO (5 μM), SD does not exceed 10%
Description: We selected hepatocytes as normal cells because hepatocytes are mediate toxicity to multiple drugs and are used as a standard to assess toxicity of drugs in vitro [28]. […] For comparison with the standard of care, doxorubicin was also included in this analysis.

[4] = tested on: YAPC pancreatic carcinoma cells; assay: Combined treatment with pancreatic cancer drugs, YAPC cells; type: cell-based, Human; settings: NSC130362 10 μM 2 h, then drugs 10 μM 24 h
Description: (§1) Fig 2 Combined treatment of NSC130362 with pancreatic cancer drugs against PANC1 and YAPC cells. Cells were pre-incubated with NSC130362 (10 μM) for 2 h followed by addition of drugs (10 μM) and incubation for an additional 24 h. […] The first bar is NSC130362 alone. *, P<0.05.

[5] = tested on: chemotherapy resistant prostate carcinoma cells; assay: Combined treatment with ATO, docetaxel, MDV3100, prostate cancer cells; type: cell-based; settings: NSC130362 10 μM 2 h
Description: Fig 3 Combined treatment of NSC130362 with ATO, docetaxel, and MDV3100 against prostate cancer cells. Cells were pre-incubated with NSC130362 (10 μM) for 2 h followed by addition of drugs (10 μM) and incubation for an additional 24 h. […] The first bar in the treatment of each cell line is NSC130362 alone. *, P<0.05.

[6] = in words; cited from earlier work
[7] = tested on: PANC1 pancreatic carcinoma cells; assay: Combined treatment with pancreatic cancer drugs, PANC1 cells; type: cell-based, Human; settings: NSC130362 10 μM 2 h, then drugs 10 μM 24 h
Description: as §1

[8] = in words; cited from earlier work; remark: listed apart in the source
[9] = HCC1187, compound alone, unit not given in Table 1, read-out: LC50 HCC1187
[10] = HCC1187, read-out: LC50 HCC1187

NC1=C(Cl)C(=O)c2ccccc2C1=O [compound 1, 2-chloro-3-amino-1,4-NQ]
remaining activity at 30 µM [1]: 33%
inhibition at 30 µM [1]: 67%
CC50 [2, 9]: 10.8 µM

CCNC1=C(Cl)C(=O)c2ccccc2C1=O [compound 3]
remaining activity at 30 µM [1]: 59%
CC50 [2, 9]: 23.6 µM

CCCCCCCNC1=C(Cl)C(=O)c2ccccc2C1=O [compound 8]
remaining activity at 30 µM [1]: 93%
inhibition at 30 µM [1]: 7%
CC50 [2, 9]: 56.1 µM

CC(C)(C)NC1=C(Cl)C(=O)c2ccccc2C1=O [compound 13]
remaining activity at 30 µM [1]: 45%
CC50 [2, 9]: 28.7 µM

CC1CN1C1=C(Cl)C(=O)c2ccccc2C1=O (stereo not shown) [compound 16]
remaining activity at 30 µM [1]: 75%
CC50 [2, 10]: 3.6 µM
Selective cytotoxicity index HCC 1187 ATO [2]: 128.6
toxicity against normal cells ([3]; hepatocytes, in words): completely non-toxic against normal cells

O=C1C(Cl)=C(NCCO)C(=O)c2ccccc21 [compound 17]
remaining activity at 30 µM [1]: 65%
effect on apoptosis induction by pancreatic cancer drugs, YAPC [4]: significantly increased the ability of all tested pancreatic cancer drugs
potentiation of docetaxel-induced cytotoxicity ([5]; then docetaxel 10 μM 24 h): potentiated docetaxel-induced cytotoxicity, but to a lesser extent
potentiation of ATO or MDV3100 effect on cell viability ([5]; then drugs 10 μM 24 h): efficiently potentiated the effect on cell viability of either ATO or MDV3100
anti-tumor activity in vivo [6]: demonstrated anti-tumor activity in vivo
effect on apoptosis induction by pancreatic cancer drugs, PANC1 [7]: significantly increased the ability of all tested pancreatic cancer drugs
half-life in the mouse bloodstream [8]: short half-life
CC50 [2, 9]: 19.2 µM
Selective cytotoxicity index HCC 1187 ATO [2]: 46.7

COCCNC1=C(Cl)C(=O)c2ccccc2C1=O [compound 21]
remaining activity at 30 µM [1]: 65%
CC50 [2, 9]: 5.2 µM
increase in toxicity to hepatocytes ([3]; versus compound 3): approximately 3 fold

CCCCOCCCNC1=C(Cl)C(=O)c2ccccc2C1=O [compound 26]
remaining activity at 30 µM [1]: 66%
CC50 [2, 9]: 1.7 µM

CCCC(=O)NC1=C(Cl)C(=O)c2ccccc2C1=O [compound 31]
remaining activity at 30 µM [1]: 28%
CC50 [2, 9]: 1 µM

CCCCC(=O)NC1=C(Cl)C(=O)c2ccccc2C1=O [compound 32]
remaining activity at 30 µM [1]: 1%
inhibition at 30 µM [1]: 99%
CC50 [2, 9]: 0.3 µM

O=C1C(Cl)=C(NCCc2ccccc2)C(=O)c2ccccc21 [compound 36]
remaining activity at 30 µM [1]: 42%

O=C1C(Cl)=C(Nc2nccs2)C(=O)c2ccccc21 [compound 38]
remaining activity at 30 µM [1]: 90%
CC50 [2, 9]: 20.3 µM

O=C1C(Cl)=C(Nc2ccccc2)C(=O)c2ccccc21 [compound 39]
remaining activity at 30 µM [1]: 92%
CC50 [2, 9]: 1.7 µM

Cc1ccccc1NC1=C(Cl)C(=O)c2ccccc2C1=O [compound 40]
remaining activity at 30 µM [1]: 72%
CC50 [2, 9]: 9 µM

COC1=C(N(C)C)C(=O)c2ccccc2C1=O [compound 53]
remaining activity at 30 µM [1]: 61%
CC50 [2, 9]: > 90 µM
Selective cytotoxicity index HCC 1187 ATO [2]: 9.5

COC1=C(N2CC2)C(=O)c2ccccc2C1=O [compound 54]
remaining activity at 30 µM [1]: 54%
CC50 [2, 10]: 18.2 µM
Selective cytotoxicity index HCC 1187 ATO [2]: 40.9

CC1=C(N2CC2)C(=O)c2ccccc2C1=O [compound 55]
remaining activity at 30 µM [1]: 83%
inhibition at 30 µM [1]: 17%
CC50 [2, 10]: 51.8 µM
Selective cytotoxicity index HCC 1187 ATO [2]: 15.8
reduction in toxicity to hepatocytes ([3]; versus compound 15): more than 10 fold

O=C1C=C(SCCO)C(=O)c2ccccc21 [compound 60]
remaining activity at 30 µM [1]: 38%
CC50 [2, 9]: 0.6 µM
EC50 [3]: 1.7 µM

CCNC1=CC(=O)c2ncccc2C1=O [compound 66]
remaining activity at 30 µM [1]: 59%
CC50 [2, 9]: 13.2 µM
EC50 [3]: > 90 µM

O=C1C(Nc2ccccc2)=CC(=O)c2ncccc21 [compound 67, reference compound]
remaining activity at 30 µM [1]: 53%
CC50 [2, 9]: 3 µM
EC50 [3]: 19.4 µM
decrease in toxicity to hepatocytes ([3]; versus compound 64): 3 fold
